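Compound exposure: 48 hours, 5 concentrations, 96-well plates. GI50 is the concentration that inhibits growth by half.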 The source made the active and inactive calls. Rule as the data show it: active = GI50 up to about 1.1 µM and inactive = higher.
How the values were obtained:
Experiment in all cases: NCI tumour cell line growth inhibition, 48 h
RXF 393 = system: RXF 393
HL-60 = system: HL-60
OVCAR-8 = system: OVCAR-8
K562 = system: K562
SF-539 = system: SF-539
OVCAR-3 = system: OVCAR-3
UACC-257 = system: UACC-257
OVCAR-5 = system: OVCAR-5
SN12C = system: SN12C
BT-549 = system: BT-549
OVCAR-4 = system: OVCAR-4
SK-MEL-5 = system: SK-MEL-5
Hs-578T = system: Hs-578T
786-0 = system: 786-0
SF-268 = system: SF-268
NCI-H226 = system: NCI-H226
HOP-62 = system: HOP-62
SK-MEL-2 = system: SK-MEL-2
HOP-92 = system: HOP-92

Measured: GI50

COC(=O)C1CC2C=CC1N(C(=O)OCc1ccccc1)C2 (stereo not given)
inactive: RXF 393 > 100 µM | HL-60 > 100 µM | OVCAR-8 > 100 µM | K562 > 100 µM | SF-539 > 100 µM | OVCAR-3 > 100 µM | UACC-257 > 100 µM | OVCAR-5 > 100 µM | SN12C > 100 µM | BT-549 > 100 µM | OVCAR-4 > 100 µM | SK-MEL-5 92 µM | Hs-578T > 100 µM | 786-0 > 100 µM | SF-268 > 100 µM | NCI-H226 > 100 µM | HOP-62 > 100 µM | SK-MEL-2 > 100 µM

Cc1ccc(S(=O)(=O)n2ccc(-c3ccc4ccn(S(=O)(=O)c5ccc(C)cc5)c4c3)c2)cc1
inactive: RXF 393 12.9 µM | HL-60 > 100 µM | OVCAR-8 > 100 µM | K562 > 100 µM | SF-539 > 100 µM | OVCAR-3 > 100 µM | UACC-257 > 100 µM | OVCAR-5 > 100 µM | SN12C > 100 µM | BT-549 > 100 µM | OVCAR-4 > 100 µM | SK-MEL-5 > 100 µM | Hs-578T 27.9 µM | 786-0 > 100 µM | SF-268 > 100 µM | NCI-H226 > 100 µM | HOP-62 > 100 µM | SK-MEL-2 > 100 µM

O=c1n(N=[S+]([O-])(c2ccccc2)c2ccccc2)c(=O)n2n1C1C=CC2CC1
inactive: HL-60 > 100 µM | OVCAR-8 > 100 µM | K562 > 100 µM | SF-539 > 100 µM | OVCAR-3 > 100 µM | UACC-257 > 100 µM | OVCAR-5 > 100 µM | SN12C > 100 µM | BT-549 > 100 µM | SK-MEL-5 > 100 µM | Hs-578T > 100 µM | 786-0 > 100 µM | HOP-92 > 100 µM | SF-268 > 100 µM | NCI-H226 > 100 µM | HOP-62 > 100 µM | SK-MEL-2 > 100 µM

COc1cc(Cc2cc3c(c(C(=O)O)c2Br)OCO3)cc(OC)c1OC
inactive: HL-60 21.7 µM | OVCAR-8 > 100 µM | K562 40.9 µM | SF-539 29.6 µM | OVCAR-3 > 100 µM | UACC-257 > 100 µM | OVCAR-5 > 100 µM | SN12C > 100 µM | BT-549 47.1 µM | OVCAR-4 > 100 µM | SK-MEL-5 51.1 µM | Hs-578T > 100 µM | 786-0 > 100 µM | HOP-92 55.5 µM | NCI-H226 > 100 µM | HOP-62 > 100 µM | SK-MEL-2 > 100 µM

From ChEMBL document CHEMBL1201862, “PubChem BioAssay data set” (2004)
